Laboratory results published in patent publication US20250041451A1, “GENE THERAPY FOR HEARING LOSS” (Perceive Biotherapeutics, Inc., priority 2021, published 2025).
Read-outs that look alike come from different tables or passages of the source.

Tests used:
[1] = tested on: cochlear hair cells (mouse cochlear explants); format: cell-based; conditions: for number of viable hair cells: untreated explants 17-52
Text: In some embodiments, an in vitro method is employed. An illustrative assay uses an aminoglycoside-induced model (using gentamycin) of hair cell death using cochlear explants. In brief, the cochleae are collected from test animal, e.g., mice. All cochleae are combined in the same dissection maintenance bath and plated as an individual sample. The following morning, high magnification digital images of cochlea are taken and cochlear explant is assigned to groups. A desired number of explants will be used for further gentamicin treatment. Test article and positive control article are dosed ˜6 hours either prior, together with, or following to gentamicin for a duration of up to 3 days. If the culture medium is replaced (e.g. when gentamicin is added/removed), the test or positive control article will be re-administered. The cochlea are cultured and observed for health and survival. At the end of the culture cochlear explants are bathed with buffer and processed for cochleogram. Following the fixation, all the cochlear explants undergo immunofluorescent staining with anti-Myosin VIIa and Phalloidin in order to specifically label the hair cells. The explants are then mounted on microscope slides, and imaged utilizing a confocal microscope using the same laser power settings for all samples. Cochlear fragment images are then divided into 20% fragments from the apex to the base. MyosinVIIa light intensity is quantified in each fragment and compared among groups. Image analysis is performed using an imaging platform, e.g., a Fiji image analysis platform. Explants are scanned using confocal microscope with filters for 488 nm and 594 nm wave lengths. Scanning is performed using the same laser power through the entire imaging for proper light intensity calculation. For analysis, cochlea can be divided in fragment of X %. Intensity of light coming from MyoVii is quantified in each fragment and compared among groups.
Mouse cochlear explants were treated with “ORI-069” a small molecule inhibitor of DLK and LZK. ORI-069 is 2-Amino-N-[(2S)-butan-2-yl]-7-(1-{2-methyl-1-[6-(trifluoromethyl)pyridin-3-yl]propyl}-1H-pyrazol-4-yl)[1,2,4]triazolo[1,5-ca]pyridine-5-carboxamide (stereoisomers 2, eutomer).
Animals were euthanized in accordance with American Veterinary Medical Association guidelines and cochleae were collected. All cochleae from each group were combined in the same dissection maintenance bath and plated as a group.
At the end of the culture period, the cochlear explants were bathed with 10% neutral buffered formalin (NBF) and processed for hair cell counting. Digital images of the cultures were collected before fixation.
Following fixation, all cochlear explants underwent immunofluorescent staining with anti-Myosin VIIa to specifically label the hair cells. The explants were mounted on microscope slides, then imaged utilizing a confocal microscope: 20× for full scan and with 63× oil, zoom 2.25, 4 zones along the length of the cochlea: one from 50-200 μm for each extremity, one in the 33% tile and one in the 66% tile. Detailed scanning was performed using 488 nm and 594 nm filters.
A blind counting of all hair cells (OHC & IHC undiscriminated) was performed on 4 to 6 zones of each explant (fragments 1, 2, 3, 4, 5 and 6) through the entire z stack generated. Counting and fragment length measure was performed by 3 different individuals. Only cells without nucleus aberration, with good staining, integrity, and well delimited cell outline were considered for counting. Cell density was determined by reporting each counting to the length of the fragment. Image analysis was performed using Fiji image analysis platform, a distribution of ImageJ.

HC survival and hearing = conditions: literature (Ylikoski 2002; Pirvola 2000); cited from earlier work

CCSCc1ccc2c(c1)c1c3c(c4c5cc(CSCC)ccc5n5c4c1n2[C@H]1C[C@](O)(C(=O)OC)[C@]5(C)O1)CNC3=O [CEP-1347]
level of hair cells compared to gentamycin treated explants ([1]; 0.5 μM test article + gentamycin 50 μM): same low level of hair cells as the gentamycin treated explants
protective effect ([1]; positive control, 0.5 μM + gentamycin 50 μM): did not show a protective effect
HC survival and hearing in multiple animal models (HC survival and hearing): increase HC survival and preserve hearing

CC[C@H](C)NC(=O)c1cc(-c2cnn(C(c3ccc(C(F)(F)F)nc3)C(C)C)c2)cc2nc(N)nn12 (stereo partly drawn) [ORI-069, 2-Amino-N-[(2S)-butan-2-yl]-7-(1-{2-methyl-1-[6-(trifluoromethyl)pyridin-3-yl]propyl}-1H-pyrazol-4-yl)[1,2,4]triazolo[1,5-ca]pyridine-5-carboxamide]
number of hair cells compared to gentamycin treated explants ([1]; 5 μM test article + gentamycin 50 μM): higher compared to gentamycin treated explants
number of viable hair cells ([1]; gentamycin 50 μM (16 h) treated explants co-administered with 0.5 μM test article, 3 days): 0-20 hair cells/fragment
number of viable hair cells ([1]; gentamycin 50 μM (16 h) treated explants co-administered with 5 μM test article, 3 days): 0-32 hair cells/fragment
protection of explant cultures (3-D Z-stack reconstructions, FIG. 2) ([1]; gentamycin 50 μM treated explants, concentration not given): protected explant cultures

gentamycin
number of viable hair cells ([1]; gentamycin 50 μM alone, single 16 h): 0-14 hair cells/fragment
